For the assay, the target named is T1, PE-labeled human PD-L1-Ig binding to Jurkat cell line over-expressing human PD-1 (Jurkat-PD-1) (Homo sapiens, UniProt Q15116).
T1 construct: expressed in transfected cells; host or cells: Jurkat
The assay can be described thus: Jurkat-PD-1 Cell Binding High-Content Screening Assay (CBA): Method 1. The note with it: Jurkat-hPD-1 cells, PE-labeled PD-L1-Ig 20 nM final; read-out: Jurkat HPDL1 PD1 IC50 (uM) (Method 1).

SMILES strings stand for the structures. Bridge positions count the residues as written; N and C are the ends. Square brackets hold non-standard residues; d marks the D form. Peptide text beside a SMILES is read from it. * marks the point of attachment. ξ: configuration not given here. Phe(4-COOH) = N[C@@H](Cc1ccc(C(=O)O)cc1)C(=O)O; Bip = N[C@@H](Cc1ccc(-c2ccccc2)cc1)C(=O)O; Phe(3-Cl) = N[C@@H](Cc1cccc(Cl)c1)C(=O)O; Phe(3-F) = N[C@@H](Cc1cccc(F)c1)C(=O)O; Phe(3-Me) = Cc1cccc(C[C@H](N)C(=O)O)c1; Val(3-OH) = CC(C)(O)[C@H](N)C(=O)O; 3Pal = N[C@@H](Cc1cccnc1)C(=O)O; 4Pal = N[C@@H](Cc1ccncc1)C(=O)O; Cha = N[C@@H](CC1CCCCC1)C(=O)O; Cit = NC(=O)NCCC[C@H](N)C(=O)O; Ile(3ξ) = CCC(C)[C@H](N)C(=O)O; Thr(3ξ) = CC(O)[C@H](N)C(=O)O; Carboxymethyl = O=C(O)C*; NMeA = CN[C@@H](C)C(=O)O; Nle = CCCC[C@H](N)C(=O)O; Pra = C#CC[C@H](N)C(=O)O; Dab = NCC[C@H](N)C(=O)O; Abu = CC[C@H](N)C(=O)O; Dap = NC[C@H](N)C(=O)O

T1 sequence (Q15116 25-288): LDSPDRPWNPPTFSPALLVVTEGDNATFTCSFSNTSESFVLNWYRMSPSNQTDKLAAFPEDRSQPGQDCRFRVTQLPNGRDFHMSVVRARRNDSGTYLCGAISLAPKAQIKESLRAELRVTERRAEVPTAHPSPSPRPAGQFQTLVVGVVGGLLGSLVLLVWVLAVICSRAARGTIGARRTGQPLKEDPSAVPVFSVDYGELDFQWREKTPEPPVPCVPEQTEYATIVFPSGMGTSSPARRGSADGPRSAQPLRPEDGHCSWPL

For the molecule `C#CC[C@H](NC(=O)[C@@H](C)NC(=O)[C@@H]1CSCC(=O)N[C@@H](Cc2ccc(OCC(=O)O)cc2)C(=O)N[C@@H](Cc2ccc(C(=O)O)cc2)C(=O)N[C@@H](CC(=O)O)C(=O)N[C@@H](Cc2c[nH]c3ccccc23)C(=O)N[C@@H](CC(C)C)C(=O)N[C@@H](Cc2ccc(-c3ccccc3)cc2)C(=O)N[C@@H](C(C)C)C(=O)N(C)[C@@H](C)C(=O)N[C@H](CC(C)C)C(=O)N[C@@H](CCN)C(=O)N[C@@H](CC2CCCCC2)C(=O)N[C@@H](C(C)(C)O)C(=O)N[C@@H](CO)C(=O)N1)C(=O)O` [Compound 1941] ({CH2CO}-Y(Carboxymethyl)[Phe(4-COOH)]DWL[Bip]V[NMeA][dL][Dab][Cha][Val(3-OH)]SC[dA][Pra]-OH; thioether N-14), the IC50 (in general, the point on the concentration scale where inhibition reaches its midpoint) turned out to be 0.01 µM.
In the case of `CCCC[C@@H]1NC(=O)[C@H](CCCNC(=N)N)NC(=O)[C@@H](CC(C)C)NC(=O)[C@H](C)N(C)C(=O)[C@H]([C@@H](C)CC)NC(=O)[C@H](Cc2ccc(-c3ccccc3)cc2)NC(=O)[C@H](C(C)C)NC(=O)[C@H](Cc2c[nH]c3ccccc23)NC(=O)[C@H](CC(=O)O)NC(=O)[C@H](Cc2ccc(O)cc2)NC(=O)[C@H](CN)NC(=O)CSC[C@@H](C(=O)N[C@@H](C)C(N)=O)NC(=O)[C@H]([C@@H](C)O)NC(=O)[C@H](C(C)C)NC1=O` [Compound 1496] ({CH2CO}-[Dap]YDWV[Bip]I[NMeA][dL]R[Nle]VTCA-NH2; thioether N-14) it was 0.18 µM; in that of `CC(C)C[C@H]1NC(=O)[C@H](C)N(C)C(=O)[C@H](C(C)(C)O)NC(=O)[C@H](Cc2ccc(-c3ccccc3)cc2)NC(=O)[C@H](C(C)(C)O)NC(=O)[C@H](Cc2c[nH]c3ccccc23)NC(=O)[C@H](CC(=O)O)NC(=O)[C@H](Cc2ccc(C(=O)O)cc2)NC(=O)[C@H](Cc2ccc(OCC(=O)O)cc2)NC(=O)CSC[C@@H](C(=O)N[C@@H](CCN)C(N)=O)NC(=O)[C@H](CCC(=O)O)NC(=O)[C@H](C(C)(C)O)NC(=O)[C@H](CC2CCCCC2)NC(=O)[C@H](CCN)NC1=O` [Compound 1713] ({CH2CO}-Y(Carboxymethyl)[Phe(4-COOH)]DW[Val(3-OH)][Bip][Val(3-OH)][NMeA][dL][Dab][Cha][Val(3-OH)]EC[Dab]-NH2; thioether N-14), 0.13 µM.
In the case of `CC(C)C[C@@H]1NC(=O)[C@H](CCCNC(=N)N)NC(=O)[C@@H](CC(C)C)NC(=O)[C@H](C)N(C)C(=O)[C@H](CCCNC(=N)N)NC(=O)[C@H](Cc2ccc(-c3ccccc3)cc2)NC(=O)[C@H](C(C)C)NC(=O)[C@H](Cc2c[nH]c3ccccc23)NC(=O)[C@H](CC(=O)O)NC(=O)[C@H](Cc2ccc(O)cc2)NC(=O)[C@H](Cc2cccnc2)NC(=O)CSC[C@@H](C(=O)N[C@@H](C)C(N)=O)NC(=O)[C@H]([C@@H](C)O)NC(=O)[C@H](C(C)C)NC1=O` [Compound 1049] ({CH2CO}-[3Pal]YDWV[Bip]R[NMeA][dL]RLVTCA-NH2; thioether N-14) it was 0.01 µM; in that of `CC(C)C[C@@H]1NC(=O)[C@H](CC(N)=O)NC(=O)[C@@H](CC(C)C)NC(=O)[C@H](C)N(C)C(=O)[C@H](CCCNC(=N)N)NC(=O)[C@H](Cc2ccc(-c3ccccc3)cc2)NC(=O)[C@H](C(C)C)NC(=O)[C@H](Cc2c[nH]c3ccccc23)NC(=O)[C@H](CC(=O)O)NC(=O)[C@H](Cc2ccc(O)cc2)NC(=O)[C@H](Cc2ccccc2)NC(=O)CSC[C@@H](C(=O)N[C@@H](C)C(N)=O)NC(=O)[C@H](CO)NC(=O)[C@H](C(C)C)NC1=O` [Compound 1742] ({CH2CO}-FYDWV[Bip]R[NMeA][dL]NLVSCA-NH2; thioether N-14), 0.02 µM.
For the molecule `CC[C@H](C)[C@@H]1NC(=O)[C@H](Cc2ccc(-c3ccccc3)cc2)NC(=O)[C@H](C(C)C)NC(=O)[C@H](Cc2c[nH]c3ccccc23)NC(=O)[C@H](CC(=O)O)NC(=O)[C@H](Cc2ccc(OCC(=O)O)cc2)NC(=O)[C@H](CC(N)=O)NC(=O)CSC[C@@H](C(=O)N[C@@H](C)C(N)=O)NC(=O)[C@H]([C@@H](C)O)NC(=O)[C@H](C(C)C)NC(=O)[C@H](CC(C)C)NC(=O)[C@H](CCN)NC(=O)[C@@H](CC(C)C)NC(=O)[C@H](C)N(C)C1=O` [Compound 1396] ({CH2CO}-NY(Carboxymethyl)DWV[Bip]I[NMeA][dL][Dab]LVTCA-NH2; thioether N-14), the half-maximal inhibitory concentration (IC50) turned out to be 0.01 µM.
In the case of `CC(C)C[C@H]1NC(=O)[C@H](C)N(C)C(=O)[C@H](C(C)C)NC(=O)[C@H](Cc2ccc(-c3ccccc3)cc2)NC(=O)[C@H](C(C)C)NC(=O)[C@H](Cc2c[nH]c3ccccc23)NC(=O)[C@H](CC(=O)O)NC(=O)[C@H](Cc2ccc(O)cc2)NC(=O)[C@H](Cc2ccccc2)NC(=O)CSC[C@@H](C(=O)N[C@@H](C)C(N)=O)NC(=O)[C@H]([C@@H](C)O)NC(=O)[C@H](C(C)C)NC(=O)[C@H](CC2CCCCC2)NC(=O)[C@H](CCCNC(=N)N)NC1=O` [Compound 1487] ({CH2CO}-FYDWV[Bip]V[NMeA][dL]R[Cha]VTCA-NH2; thioether N-14) it was 0.32 µM; in that of `CC(C)C[C@@H]1NC(=O)[C@H](CCN)NC(=O)[C@@H](CC(C)C)NC(=O)[C@H](C)N(C)C(=O)[C@H](CCCNC(N)=O)NC(=O)[C@H](Cc2ccc(-c3ccccc3)cc2)NC(=O)[C@H](C(C)C)NC(=O)[C@H](Cc2cccc(Cl)c2)NC(=O)[C@H](CC(=O)O)NC(=O)[C@H](Cc2ccc(O)cc2)NC(=O)[C@H](CC(N)=O)NC(=O)CSC[C@@H](C(=O)N[C@@H](C)C(N)=O)NC(=O)[C@H]([C@@H](C)O)NC(=O)[C@H](C(C)C)NC1=O` [Compound 1190] ({CH2CO}-NYD[Phe(3-Cl)]V[Bip][Cit][NMeA][dL][Dab]LVTCA-NH2; thioether N-14), 0.02 µM.
`CCCC[C@@H]1NC(=O)[C@H](CCN)NC(=O)[C@@H](CC(C)C)NC(=O)[C@H](C)N(C)C(=O)[C@H](C(C)C)NC(=O)[C@H](Cc2ccc(-c3ccccc3)cc2)NC(=O)[C@H](C(C)C)NC(=O)[C@H](Cc2c[nH]c3ccccc23)NC(=O)[C@H](CC(=O)O)NC(=O)[C@H](Cc2ccc(O)cc2)NC(=O)[C@H](CC(N)=O)NC(=O)CSC[C@@H](C(=O)N[C@@H](C)C(N)=O)NC(=O)[C@H]([C@@H](C)O)NC(=O)[C@H](C(C)C)NC1=O` [Compound 1295] ({CH2CO}-NYDWV[Bip]V[NMeA][dL][Dab][Nle]VTCA-NH2; thioether N-14): the IC50 is 0.02 µM.
As for `CC(C)C[C@@H]1NC(=O)[C@H](CCN)NC(=O)[C@@H](CC(C)C)NC(=O)[C@H](C)N(C)C(=O)[C@H](Cc2cnc[nH]2)NC(=O)[C@H](Cc2ccc(-c3ccccc3)cc2)NC(=O)[C@H](C(C)C)NC(=O)[C@H](Cc2c[nH]c3ccccc23)NC(=O)[C@H](CC(=O)O)NC(=O)[C@H](Cc2ccc(C(=O)O)cc2)NC(=O)[C@H](CC(N)=O)NC(=O)CSC[C@@H](C(=O)N[C@@H](C)C(N)=O)NC(=O)[C@H]([C@@H](C)O)NC(=O)[C@H](C(C)C)NC1=O` [Compound 1383] ({CH2CO}-N[Phe(4-COOH)]DWV[Bip]H[NMeA][dL][Dab]LVTCA-NH2; thioether N-14), the figure is 0.06 µM; as for `CC(C)C[C@@H]1NC(=O)[C@H](CCN)NC(=O)[C@@H](CC(C)C)NC(=O)[C@H](C)N(C)C(=O)[C@H](CCCNC(=N)N)NC(=O)[C@H](Cc2ccc(-c3ccccc3)cc2)NC(=O)[C@H](C(C)C)NC(=O)[C@H](Cc2c[nH]c3ccccc23)NC(=O)[C@H](CC(N)=O)NC(=O)[C@H](Cc2ccc(O)cc2)NC(=O)[C@H](CC(N)=O)NC(=O)CSC[C@@H](C(=O)N[C@@H](C)C(N)=O)NC(=O)[C@H]([C@@H](C)O)NC(=O)[C@H](C(C)C)NC1=O` [Compound 1186] ({CH2CO}-NYNWV[Bip]R[NMeA][dL][Dab]LVTCA-NH2; thioether N-14), 0.93 µM; as for `CC(C)C[C@@H]1NC(=O)[C@H](CC(N)=O)NC(=O)[C@@H](CC(C)C)NC(=O)[C@H](C)N(C)C(=O)[C@H](CCCNC(N)=O)NC(=O)[C@H](Cc2ccc(-c3ccccc3)cc2)NC(=O)[C@H](C(C)C)NC(=O)[C@H](Cc2c[nH]c3ccccc23)NC(=O)[C@H](CC(=O)O)NC(=O)[C@H](Cc2ccc(O)cc2)NC(=O)[C@H](Cc2ccccc2)NC(=O)CSC[C@@H](C(=O)N[C@@H](C)C(N)=O)NC(=O)[C@H](C(C)O)NC(=O)[C@H](C(C)C)NC1=O` (stereo partly drawn) [Compound 2031] ({CH2CO}-FYDWV[Bip][Cit][NMeA][dL]NLV[Thr(3ξ)]CA-NH2; thioether N-14), 0.07 µM.
In the case of `CCNC(=O)[C@H](CCN)NC(=O)[C@@H]1CSCC(=O)N[C@@H](Cc2ccncc2)C(=O)N[C@@H](Cc2ccc(OCC(=O)O)cc2)C(=O)N[C@@H](CC(=O)O)C(=O)N[C@@H](Cc2cccc(C)c2)C(=O)N[C@@H](Cc2cccc(F)c2)C(=O)N[C@@H](Cc2ccc(-c3ccccc3)cc2)C(=O)N[C@@H](C(C)C)C(=O)N(C)[C@@H](C)C(=O)N[C@H](CC(C)C)C(=O)N[C@@H](CCN)C(=O)N[C@@H](CC2CCCCC2)C(=O)N[C@@H](C(C)(C)O)C(=O)N[C@@H](CO)C(=O)N1` [Compound 1838] ({CH2CO}-[4Pal]Y(Carboxymethyl)D[Phe(3-Me)][Phe(3-F)][Bip]V[NMeA][dL][Dab][Cha][Val(3-OH)]SC[Dab]-NHEt; thioether N-14) it was 0.01 µM; in that of `CC[C@@H]1NC(=O)[C@H](CCCNC(=N)N)NC(=O)[C@@H](CC(C)C)NC(=O)[C@H](C)N(C)C(=O)[C@H](CCCNC(=N)N)NC(=O)[C@H](Cc2ccc(-c3ccccc3)cc2)NC(=O)[C@H](C(C)C)NC(=O)[C@H](Cc2c[nH]c3ccccc23)NC(=O)[C@H](CC(=O)O)NC(=O)[C@H](Cc2ccc(O)cc2)NC(=O)[C@H](Cc2ccccc2)NC(=O)CSC[C@@H](C(=O)N[C@@H](C)C(N)=O)NC(=O)[C@H]([C@@H](C)O)NC(=O)[C@H](C(C)C)NC1=O` [Compound 1114] ({CH2CO}-FYDWV[Bip]R[NMeA][dL]R[Abu]VTCA-NH2; thioether N-14), 0.93 µM; in that of `CCC(C)[C@@H]1NC(=O)[C@H](Cc2ccc(-c3ccccc3)cc2)NC(=O)[C@H](C(C)C)NC(=O)[C@H](Cc2c[nH]c3ccccc23)NC(=O)[C@H](CC(=O)O)NC(=O)[C@H](Cc2ccc(OCC(=O)O)cc2)NC(=O)[C@H](CN)NC(=O)CSC[C@@H](C(=O)N[C@@H](C)C(N)=O)NC(=O)[C@H](C(C)O)NC(=O)[C@H](C(C)C)NC(=O)[C@H](CC(C)C)NC(=O)[C@H](CCN)NC(=O)[C@@H](CC(C)C)NC(=O)[C@H](C)N(C)C1=O` (stereo partly drawn) [Compound 2084] ({CH2CO}-[Dap]Y(Carboxymethyl)DWV[Bip][Ile(3ξ)][NMeA][dL][Dab]LV[Thr(3ξ)]CA-NH2; thioether N-14), 0.07 µM.

Source of the values: US20240409585A1, “MACROCYCLIC IMMUNOMODULATORS” (priority 2021, published 2024).
